Paper PMC6792352, “Limited Chemical Structural Diversity Found to Modulate Thyroid Hormone Receptor in the Tox21 Chemical Library” (Environmental Health Perspectives, 2019)
Structures can show the parent of a compound that is named as a salt.

assay: in vitro; details: rat, gh3-tre-luc cells, AC50 (uM) modified / 1000

SMILES | CC50 at 24 h
Nc1ccccc1 [Anilinium nitrate] | > 50 µM
CSCCCN=C=S [3-(Methylthio)propyl isothiocyanate] | > 90 µM
C/C(=N\O)c1ccc(OCC(=O)N2CCCCC2)cc1 [Pifoxime] | > 50 µM
CCCCCCCCCCCCCC(=O)OCC [Ethyl tetradecanoate] | > 90 µM
Oc1ccccc1Cc1ccccc1O [2,2'-Bisphenol F] | > 90 µM
c1ccc(-c2nc[nH]c2-c2ccccc2)cc1 [4,5-Diphenylimidazole] | > 50 µM
c1ccc2c(c1)-c1cccc3c1c-2cc1ccccc13 [Benzo(b)fluoranthene] | > 90 µM
CCC(=O)[C@@]1(C)[C@H](C)C[C@H]2[C@@H]3CCC4=CC(=O)C=C[C@]4(C)[C@H]3[C@@H](O)C[C@@]21C [Rimexolone] | > 20 µM
CC(C)(C)C1CCCCC1O (stereo not drawn) [2-tert-Butylcyclohexanol] | > 90 µM
C[C@H]1COc2c(C3(N)CC3)c(F)cc3c(=O)c(C(=O)O)cn1c23 [Pazufloxacin] | > 50 µM
CCCCCCCCCCCCCCCCOP(=O)([O-])OCC[N+](C)(C)C [Miltefosine] | > 50 µM
NNC(=O)c1cccc(C(=O)NN)c1 [1,3-Benzenedicarboxylic acid, dihydrazide] | > 90 µM
C[C@]12CC[C@@H]3c4ccc(O)cc4CC[C@H]3[C@@H]1C[C@@H](O)[C@@H]2O [Estriol] | > 90 µM
CC1(C)CCC[C@]2(C)[C@H]3CC(=O)O[C@]3(C)CC[C@@H]12 [(3aR)-(+)-Sclareolide] | 64.9 µM
CCN(CC)S(=O)(=O)c1ccc(C(=O)O)cc1 [Ethebenecid] | > 50 µM
C=C[C@H]1C[N@@]2CC[C@H]1C[C@H]2[C@H](O)c1ccnc2ccc(OC)cc12 [Quinine hemisulfate salt monohydrate] | > 50 µM
CC(C(=O)O)c1ccc2c(c1)Cc1cccnc1O2 (stereo not drawn) [Pranoprofen] | > 50 µM
CCC1(c2ccccc2)C(=O)NC(=O)N(C)C1=O (stereo not drawn) [Mephobarbital] | > 50 µM
N#CCC(=O)NN [Cyacetacide] | > 50 µM
C/C=C/C=C/CCCCCCCO [Codlelure] | 79.4 µM
CCCCC(CC)CNCC(CC)CCCC (stereo not drawn) [Bis-2-ethylhexylamine] | > 90 µM
O=C(Cl)c1c(Cl)cccc1Cl [2,6-Dichlorobenzoyl chloride] | > 90 µM
CCCN(CCC)C(=O)Cc1c(-c2ccc(Cl)cc2)nc2ccc(Cl)cn12 [Alpidem] | > 50 µM
C=CC(=O)NCOCC(C)C [N-(Isobutoxymethyl)acrylamide] | > 90 µM
CCCCOc1ccc(C(=O)CCN2CCCCC2)cc1 [Dyclonine hydrochloride] | 4.72 µM

SMILES | CC50 at 24 h
Cc1ccc(OP(=O)(Oc2ccc(C)cc2C)Oc2ccc(C)cc2C)c(C)c1 [TXP] | > 100 µM
C=CCOc1nc(OCC=C)nc(OCC=C)n1 [2,4,6-Tris(allyloxy)-1,3,5-triazine] | > 90 µM
CCCCN1CCCC1C(=O)Nc1c(C)cc(C)cc1C (stereo not drawn) [Bumecaine] | > 50 µM
CS(=O)(=O)c1ccc(C(=O)C2C(=O)CCCC2=O)c([N+](=O)[O-])c1 [Mesotrione] | > 90 µM
CCN(CCO)c1cccc(C)c1 [2-(N-Ethyl-m-toluidino)ethanol] | > 90 µM
Cc1ncc(CO)c(C=O)c1O [Pyridoxal] | > 50 µM
NNC(=O)c1ccccc1 [Benzoyl hydrazine] | > 90 µM
CCCCCCCCCCCCCCCCCCOCC(COP(=O)([O-])OCC[N+](C)(C)C)OC (stereo not drawn) [Edelfosine] | 43.1 µM
CCCCCCOc1ccc(N)cc1 [4-Hexyloxyaniline] | > 90 µM
FC(Cl)(Cl)Cl [Trichlorofluoromethane] | > 90 µM
CCc1cccc2c3c([nH]c12)C(CC)(CC(=O)O)OCC3 (stereo not drawn) [Etodolac] | > 90 µM
CC(C)(C)NSc1nc2ccccc2s1 [N-tert-Butyl-2-benzothiazolesulfenamide] | > 90 µM
O=C1OC(=O)c2cc(Oc3ccc4c(c3)C(=O)OC4=O)ccc21 [5,5'-Oxybis(2-benzofuran-1,3-dione)] | > 90 µM
CC(=O)OCC(=O)[C@@]1(O)CC[C@H]2[C@@H]3C[C@H](C)C4=CC(=O)C=C[C@]4(C)[C@H]3[C@@H](O)C[C@@]21C [Methylprednisolone acetate] | > 50 µM
COc1ccc(NC(C)=O)cc1 [N-(4-Methoxyphenyl)acetamide] | > 90 µM
S=C(S)NCCNC(=S)S [Nabam-sodium] | > 90 µM
c1ccc2cc3ccccc3cc2c1 [Anthracene] | > 90 µM
CCCOc1nn(C(=O)NS(=O)(=O)c2ccccc2C(=O)OC)c(=O)n1C [Propoxycarbazone-sodium] | > 90 µM
CCCCCCC[N+](CC)(CC)CCCCc1ccc(Cl)cc1 [Clofilium tosylate] | > 20 µM
O=C1NCC2(CCN(CCc3ccccc3)CC2)O1 [Fenspiride hydrochloride] | > 50 µM
CN(C)[C@@H]1C(=O)C(C(=O)NCNCCCC[C@H](N)C(=O)O)=C(O)[C@@]2(O)C(=O)C3=C(O)c4c(O)cccc4[C@@](C)(O)[C@H]3C[C@@H]12 [Lymecycline] | > 20 µM
NC(=O)OC[C@@H]1[C@H](NC(=O)/C(=N\OCC(=O)O)c2csc(N)n2)C(=O)N1S(=O)(=O)O [Carumonam sodium] | > 50 µM
CC1(C)S[C@@H]2[C@H](NC(=O)[C@H](N)c3ccccc3)C(=O)N2[C@H]1C(=O)OCOC(=O)[C@@H]1N2C(=O)C[C@H]2S(=O)(=O)C1(C)C [Sultamicillin tosylate] | > 50 µM
N=C1NC(=O)N2CC12 (stereo not drawn) [Imexon] | > 50 µM
CO[C@@]1(NC(=O)CSCC#N)C(=O)N2C(C(=O)O)=C(CSc3nnnn3C)CS[C@@H]21 [Cefmetazole sodium] | > 50 µM

SMILES | CC50 at 24 h
CC(=O)O[C@H](CC(=O)[O-])C[N+](C)(C)C [Acetyl-L-carnitine hydrochloride] | > 90 µM
CCC(Cc1c(I)cc(I)c(O)c1I)C(=O)O (stereo not drawn) [Iophenoxic acid] | > 50 µM
CCCC(C)C [2-Methylpentane] | > 90 µM
CCCN(CCC)C(=O)C(CCC(=O)O)NC(=O)c1ccccc1 (stereo not drawn) [Proglumide] | > 50 µM
C=CCS(=O)(=O)O [2-Propene-1-sulfonic acid, sodium salt] | > 90 µM
CCOC(=O)NCCC[Si](OCC)(OCC)OCC [Ethyl [3-(triethoxysilyl)propyl]carbamate] | > 90 µM
Cc1coc2c1CCC(C)C2 (stereo not drawn) [Menthofuran] | > 90 µM
Cc1cccc(O)c1 [m-Cresol] | > 100 µM
COc1cccc(N)c1 [3-Methoxyaniline] | > 90 µM
CC1(C)NC(=O)N(c2ccc([N+](=O)[O-])c(C(F)(F)F)c2)C1=O [Nilutamide] | > 90 µM
CCC(C)Nc1c([N+](=O)[O-])cc(C(C)(C)C)cc1[N+](=O)[O-] (stereo not drawn) [Butralin] | 68.1 µM
C=CCCC=C [1,5-Hexadiene] | > 90 µM
CC(=O)C(C)=O [2,3-Butanedione] | > 90 µM
C=C(C)C(=O)OCCOC(=O)CC(C)=O [2-[Methacryloyloxy]ethyl acetoacetate] | > 90 µM
O=CNNC=O [1,2-Diformylhydrazine] | > 90 µM
CC1=CC(=O)CC(C)(C)C1=O [2,6,6-Trimethyl-2-cyclohexene-1,4-dione] | > 90 µM
C[C@@H]1CCC[C@H](C)N1 [cis-Nanophine hydrochloride] | > 20 µM
Cc1nc2n(c(=O)c1CCN1CCC(c3noc4cc(F)ccc34)CC1)CCCC2 [Risperidone] | > 50 µM
CCCC(=O)C(=O)O [2-Oxopentanoic acid] | > 90 µM
COc1ccc(CN2CCN(C(c3ccc(F)cc3)c3ccc(F)cc3)CC2)c(OC)c1OC [Lomerizine dihydrochloride] | 10.5 µM
CC(C)(C)OC(=O)N1CC(N)C1 [Lithium sulfate] | > 5 µM
C[N+](C)(C)CCOC(N)=O [Carbachol] | > 50 µM
CCCC[N+](CCCC)(CCCC)CCCC [Tetrabutylammonium bromide] | > 90 µM
O=C(/C=C/c1cccc(F)c1)NC1CC1 [Cinflumide] | > 50 µM
OCCN1CCOCC1 [4-(2-Hydroxyethyl)morpholine] | > 90 µM

same assay, conditions: rat, gh3-tre-luc cells, AC50 (uM) modified / 1000, Tox21_110001=Tox21_110431; viability, 1 nM T3 present, 24 h

SMILES | CC50 at 24 h
C[C@H](N)[C@H](O)c1ccccc1 [Phenylpropanolamine hydrochloride] | > 20 µM

same assay, conditions: rat, gh3-tre-luc cells, AC50 (uM) modified / 1000, Tox21_110001=Tox21_112820; viability, 1 nM T3 present, 24 h

SMILES | CC50 at 24 h
CCC(N)Cc1c[nH]c2ccccc12 (stereo not drawn) [Etryptamine acetate] | > 100 µM

same assay, conditions: rat, gh3-tre-luc cells, AC50 (uM) modified / 1000, Tox21_110001=Tox21_112931; viability, 1 nM T3 present, 24 h

SMILES | CC50 at 24 h
CCc1cc2c(s1)-n1c(C)nnc1CN=C2c1ccccc1Cl [Etizolam] | > 50 µM

same assay, conditions: rat, gh3-tre-luc cells, AC50 (uM) modified / 1000, Tox21_110001=Tox21_200689; viability, 1 nM T3 present, 24 h

SMILES | CC50 at 24 h
C[C@]12CC[C@H]3[C@@H](CCC4=CC(=O)CC[C@@]43C)[C@@H]1CC[C@@H]2O [Testosterone] | > 90 µM

same assay, conditions: rat, gh3-tre-luc cells, AC50 (uM) modified / 1000, Tox21_110001=Tox21_202411; viability, 1 nM T3 present, 24 h

SMILES | CC50 at 24 h
CC(C)CON=O [Isobutyl nitrite] | > 90 µM

same assay, conditions: rat, gh3-tre-luc cells, AC50 (uM) modified / 1000, Tox21_110001=Tox21_301050; viability, 1 nM T3 present, 24 h

SMILES | CC50 at 24 h
C[C@H]1[C@H](c2ccc(Cl)cc2)SC(=O)N1C(=O)NC1CCCCC1 [Hexythiazox] | 67.8 µM

same assay, conditions: rat, gh3-tre-luc cells, AC50 (uM) modified / 1000, Tox21_110001=Tox21_301853; viability, 1 nM T3 present, 24 h

SMILES | CC50 at 24 h
COCC(=O)N(c1c(C)cccc1C)N1CCOC1=O [Oxadixyl] | > 90 µM

same assay, conditions: rat, gh3-tre-luc cells, AC50 (uM) modified / 1000, Tox21_110001=Tox21_301918; viability, 1 nM T3 present, 24 h

SMILES | CC50 at 24 h
COP(=S)(OC)Oc1cc(Cl)c(Br)cc1Cl [Bromofos] | > 90 µM

same assay, conditions: rat, gh3-tre-luc cells, AC50 (uM) modified / 1000, Tox21_110001=Tox21_302863; viability, 1 nM T3 present, 24 h

SMILES | CC50 at 24 h
CC(C)CON=O [Isobutyl nitrite] | > 30 µM
